Values belong to the compound of their own block, whether it stands above or below them.
Tests used:
[1] = target: Metabotropic glutamate receptor 7 (Rattus norvegicus) (UniProt P35400); experiment: (§1) Positive allosteric modulation of rat mGlu7 receptor expressed in HEK293 cells co-expressing Gai5 assessed as potentiation of L-AP4-induced calcium mobilization preincubated for 140 secs and treated with EC20 L-AP4 for 125 secs and followed by subsequent addition of EC80 L-AP4 by Fluo-4-AM dye based fluorescence assay relative to maximal induction of L-AP4; assay type: functional, cell-based; details: filed as positive allosteric modulator, time 140.0 sec
Chain of Metabotropic glutamate receptor 7 (Rattus norvegicus) (P35400 whole entry): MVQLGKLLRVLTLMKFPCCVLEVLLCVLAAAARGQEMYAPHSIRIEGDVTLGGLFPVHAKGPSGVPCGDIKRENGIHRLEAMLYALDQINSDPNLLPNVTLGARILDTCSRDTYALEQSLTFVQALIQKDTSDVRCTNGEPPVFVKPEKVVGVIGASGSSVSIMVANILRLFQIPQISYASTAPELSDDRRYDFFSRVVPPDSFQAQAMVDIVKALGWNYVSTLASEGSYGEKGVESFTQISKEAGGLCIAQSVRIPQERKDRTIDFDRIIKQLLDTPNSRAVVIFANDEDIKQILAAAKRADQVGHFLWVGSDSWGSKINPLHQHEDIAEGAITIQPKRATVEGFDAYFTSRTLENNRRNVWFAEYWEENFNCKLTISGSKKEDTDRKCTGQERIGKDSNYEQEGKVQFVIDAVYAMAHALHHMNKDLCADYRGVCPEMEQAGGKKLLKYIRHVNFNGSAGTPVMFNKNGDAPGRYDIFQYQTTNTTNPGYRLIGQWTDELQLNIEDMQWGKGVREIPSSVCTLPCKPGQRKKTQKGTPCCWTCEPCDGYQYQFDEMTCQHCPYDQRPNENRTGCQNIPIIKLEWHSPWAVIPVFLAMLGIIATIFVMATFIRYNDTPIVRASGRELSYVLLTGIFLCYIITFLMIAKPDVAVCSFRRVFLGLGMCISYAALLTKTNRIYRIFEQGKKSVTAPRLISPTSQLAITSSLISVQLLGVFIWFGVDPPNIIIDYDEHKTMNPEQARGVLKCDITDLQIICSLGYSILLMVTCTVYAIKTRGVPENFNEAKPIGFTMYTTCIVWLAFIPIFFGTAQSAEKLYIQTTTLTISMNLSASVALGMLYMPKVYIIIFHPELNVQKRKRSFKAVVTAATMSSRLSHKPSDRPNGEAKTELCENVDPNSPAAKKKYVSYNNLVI

[2] = Unbound plasma to brain permeability coefficient, Kp of the compound in rat; assay type: ADME, cell-free; details: read-out: K(p,uu,brain)
[3] = Plasma to brain permeability coefficient, Kp of the compound in rat; assay type: ADME, cell-free
[4] = target: Metabotropic glutamate receptor 1 (Homo sapiens, UniProt Q13255); experiment: Negative allosteric modulation of mGlu1 receptor (unknown origin)
[5] = target: Metabotropic glutamate receptor 2 (Homo sapiens, UniProt Q14416); experiment: Negative allosteric modulation of mGlu2 receptor (unknown origin)
Chain of Metabotropic glutamate receptor 2 (Q14416 whole entry): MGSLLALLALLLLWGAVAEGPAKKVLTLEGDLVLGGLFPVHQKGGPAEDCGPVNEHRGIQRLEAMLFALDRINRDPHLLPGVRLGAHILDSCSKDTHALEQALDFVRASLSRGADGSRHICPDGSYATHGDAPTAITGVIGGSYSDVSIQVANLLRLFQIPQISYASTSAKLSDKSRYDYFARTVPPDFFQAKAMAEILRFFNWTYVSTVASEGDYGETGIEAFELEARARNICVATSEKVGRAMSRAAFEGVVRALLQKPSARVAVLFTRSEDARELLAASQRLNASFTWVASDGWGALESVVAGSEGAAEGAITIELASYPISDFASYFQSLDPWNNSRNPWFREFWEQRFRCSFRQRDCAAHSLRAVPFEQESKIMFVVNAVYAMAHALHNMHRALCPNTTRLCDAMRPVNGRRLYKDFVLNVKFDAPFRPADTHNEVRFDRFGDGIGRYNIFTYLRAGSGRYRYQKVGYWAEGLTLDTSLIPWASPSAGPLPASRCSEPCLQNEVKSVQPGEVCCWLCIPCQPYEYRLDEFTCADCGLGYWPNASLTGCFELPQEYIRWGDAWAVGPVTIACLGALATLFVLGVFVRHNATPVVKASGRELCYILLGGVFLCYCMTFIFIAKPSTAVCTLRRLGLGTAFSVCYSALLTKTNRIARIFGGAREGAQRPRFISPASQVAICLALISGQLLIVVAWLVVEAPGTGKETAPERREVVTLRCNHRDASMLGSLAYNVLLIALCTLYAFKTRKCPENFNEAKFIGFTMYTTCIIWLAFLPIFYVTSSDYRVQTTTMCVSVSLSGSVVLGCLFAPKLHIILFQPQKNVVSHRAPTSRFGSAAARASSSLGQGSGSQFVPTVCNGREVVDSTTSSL

[6] = target: Metabotropic glutamate receptor 3 (Homo sapiens, UniProt Q14832); experiment: Negative allosteric modulation of mGlu3 receptor (unknown origin)
Chain of Metabotropic glutamate receptor 3 (Q14832 whole entry): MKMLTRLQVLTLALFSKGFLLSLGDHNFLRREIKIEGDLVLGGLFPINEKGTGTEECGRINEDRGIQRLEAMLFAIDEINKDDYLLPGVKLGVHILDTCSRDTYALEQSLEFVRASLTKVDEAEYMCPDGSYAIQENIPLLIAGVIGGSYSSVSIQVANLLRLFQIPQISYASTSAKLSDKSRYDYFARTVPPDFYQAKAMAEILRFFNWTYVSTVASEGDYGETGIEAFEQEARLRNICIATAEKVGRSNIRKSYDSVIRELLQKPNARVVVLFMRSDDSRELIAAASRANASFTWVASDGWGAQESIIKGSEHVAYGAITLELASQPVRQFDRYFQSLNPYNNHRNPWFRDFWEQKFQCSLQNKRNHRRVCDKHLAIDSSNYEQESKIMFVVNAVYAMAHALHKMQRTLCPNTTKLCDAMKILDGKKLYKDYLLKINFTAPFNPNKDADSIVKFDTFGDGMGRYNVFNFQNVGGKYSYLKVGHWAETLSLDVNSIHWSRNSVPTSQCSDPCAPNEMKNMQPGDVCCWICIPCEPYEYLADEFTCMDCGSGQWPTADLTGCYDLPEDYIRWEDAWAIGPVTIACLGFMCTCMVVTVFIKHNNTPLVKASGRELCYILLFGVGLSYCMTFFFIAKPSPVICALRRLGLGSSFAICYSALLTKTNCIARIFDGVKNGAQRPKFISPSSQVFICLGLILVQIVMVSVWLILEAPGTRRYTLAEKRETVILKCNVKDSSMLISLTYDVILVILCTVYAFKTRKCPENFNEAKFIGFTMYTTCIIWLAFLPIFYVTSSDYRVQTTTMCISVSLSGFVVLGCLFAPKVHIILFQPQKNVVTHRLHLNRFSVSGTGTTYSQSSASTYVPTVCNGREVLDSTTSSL

[7] = target: Metabotropic glutamate receptor 4 (Homo sapiens, UniProt Q14833); experiment: Negative allosteric modulation of mGlu4 receptor (unknown origin)
Chain of Metabotropic glutamate receptor 4 (Q14833 whole entry): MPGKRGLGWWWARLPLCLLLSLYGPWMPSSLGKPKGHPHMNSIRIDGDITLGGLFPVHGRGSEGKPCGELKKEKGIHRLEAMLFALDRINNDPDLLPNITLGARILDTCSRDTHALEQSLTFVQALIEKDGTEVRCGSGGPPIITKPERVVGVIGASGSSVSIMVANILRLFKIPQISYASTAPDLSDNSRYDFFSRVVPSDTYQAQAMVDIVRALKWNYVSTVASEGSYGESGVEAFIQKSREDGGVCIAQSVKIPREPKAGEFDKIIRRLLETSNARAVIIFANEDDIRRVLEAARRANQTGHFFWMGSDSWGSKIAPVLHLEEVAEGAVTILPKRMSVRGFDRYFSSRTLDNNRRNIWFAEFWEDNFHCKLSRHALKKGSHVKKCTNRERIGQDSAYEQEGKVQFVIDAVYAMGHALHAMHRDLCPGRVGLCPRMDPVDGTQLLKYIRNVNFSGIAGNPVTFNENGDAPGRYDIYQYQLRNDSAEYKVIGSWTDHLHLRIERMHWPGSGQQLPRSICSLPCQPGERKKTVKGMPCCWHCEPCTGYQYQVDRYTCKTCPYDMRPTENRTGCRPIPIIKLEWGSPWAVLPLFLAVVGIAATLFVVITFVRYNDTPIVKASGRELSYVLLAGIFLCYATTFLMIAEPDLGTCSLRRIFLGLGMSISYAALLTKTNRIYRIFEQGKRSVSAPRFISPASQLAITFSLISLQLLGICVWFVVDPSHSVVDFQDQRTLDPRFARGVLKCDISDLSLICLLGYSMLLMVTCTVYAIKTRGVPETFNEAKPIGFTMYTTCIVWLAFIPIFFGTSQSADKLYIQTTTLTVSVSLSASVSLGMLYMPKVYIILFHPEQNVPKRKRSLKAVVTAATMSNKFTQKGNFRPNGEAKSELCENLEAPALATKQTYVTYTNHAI

[8] = target: Metabotropic glutamate receptor 5 (Homo sapiens, UniProt P41594); experiment: Negative allosteric modulation of mGlu5 receptor (unknown origin)
[9] = target: Metabotropic glutamate receptor 8 (Homo sapiens, UniProt O00222); experiment: Negative allosteric modulation of mGlu8 receptor (unknown origin)
[10] = target: T1, Metabotropic glutamate receptor 7 (Rattus norvegicus, UniProt P35400); experiment: as §1, with “assay” for “assay relative to maximal induction of L-AP4”; assay type: functional, cell-based; details: read-out: EC50
T1 sequence (P35400 whole entry): as the sequence (P35400 whole entry) above

[11] = target: T1, Metabotropic glutamate receptor 7; experiment: Positive allosteric modulation of rat mGlu7 expressed in HEK293 cells co- expressing GIRK assessed as potentiation of L-AP4-induced thallium flux incubated for 140 sec by FluoZin2-AM dye based fluorescence analysis; assay type: cell-based
[12] = target: Sodium-dependent dopamine transporter (Homo sapiens, UniProt Q01959); experiment: Displacement of […] from recombinant human Dopamine transporter after 120 mins by scintillation counting analysis; assay type: ADME
Chain of Sodium-dependent dopamine transporter (Q01959 whole entry): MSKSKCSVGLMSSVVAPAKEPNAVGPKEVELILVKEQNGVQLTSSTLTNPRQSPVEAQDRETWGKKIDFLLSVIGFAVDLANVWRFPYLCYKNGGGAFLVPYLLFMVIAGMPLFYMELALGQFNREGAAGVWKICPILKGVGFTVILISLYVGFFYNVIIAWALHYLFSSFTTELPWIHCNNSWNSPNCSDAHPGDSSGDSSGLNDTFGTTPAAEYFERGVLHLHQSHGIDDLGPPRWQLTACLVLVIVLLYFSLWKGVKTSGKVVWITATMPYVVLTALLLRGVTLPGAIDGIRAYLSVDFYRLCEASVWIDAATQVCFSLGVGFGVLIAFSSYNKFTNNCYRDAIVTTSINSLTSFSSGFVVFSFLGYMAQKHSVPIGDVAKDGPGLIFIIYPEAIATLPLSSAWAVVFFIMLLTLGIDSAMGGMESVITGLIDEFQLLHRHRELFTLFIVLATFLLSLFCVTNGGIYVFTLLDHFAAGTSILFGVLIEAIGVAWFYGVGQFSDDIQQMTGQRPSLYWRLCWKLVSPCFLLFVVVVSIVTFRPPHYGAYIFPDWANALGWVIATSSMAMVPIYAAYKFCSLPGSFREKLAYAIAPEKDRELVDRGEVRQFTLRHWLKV

[13] = Hepatic intrinsic clearance in rat liver microsomes at 1 uM preincubated for 5 mins followed by NADPH addition and measured up to 45 mins by LC-MS/MS analysis; assay type: ADME, Microsome; details: read-out: CLH
[14] = Hepatic intrinsic clearance in mouse liver microsomes at 1 uM preincubated for 5 mins followed by NADPH addition and measured up to 45 mins by LC-MS/MS analysis; assay type: ADME, Microsome; details: read-out: CLH
[15] = Fraction unbound in rat plasma at 5 uM incubated for 4 hrs by equilibrium dialysis based LC-MS/MS analysis; assay type: ADME, cell-free
[16] = Fraction unbound in mouse plasma at 5 uM incubated for 4 hrs by equilibrium dialysis based LC-MS/MS analysis; assay type: ADME, cell-free
[17] = Fraction unbound in rat brain at 5 uM incubated for 6 hrs by equilibrium dialysis based LC-MS/MS analysis; assay type: ADME, tissue-based
[18] = Fraction unbound in mouse brain at 5 uM incubated for 6 hrs by equilibrium dialysis based LC-MS/MS analysis; assay type: ADME, tissue-based
[19] = Plasma to brain permeability coefficient, Kp of the compound in Sprague-Dawley rat at 0.2 mg/kg, iv measured after 0.25 hrs by LC-MS/MS analysis; assay type: ADME, organism-based
[20] = Unbound plasma to brain permeability coefficient, Kp of the compound in Sprague-Dawley rat at 0.2 mg/kg, iv measured after 0.25 hrs by LC-MS/MS analysis; assay type: ADME, organism-based; details: read-out: K(p,uu,brain)
[21] = target: Metabotropic glutamate receptor 7 (Rattus norvegicus) (UniProt P35400); experiment: Positive allosteric modulation of rat mGlu7 expressed in HEK293 cells co- expressing GIRK assessed as potentiation of L-AP4-induced thallium flux incubated for 140 sec by FluoZin2-AM dye based fluorescence analysis relative to maximal induction of L-AP4; assay type: cell-based; details: filed as positive allosteric modulator

SMILES: CCOC(=O)c1cnc2c(OC)cccc2c1N1CCN(c2ccccc2F)CC1
Kp uu [2]: 0.96 | Kp [3]: 4.7 | IC50 [4]: > 30000 nM | IC50 [5]: > 30000 nM | IC50 [6]: > 30000 nM | IC50 [7]: > 30000 nM | IC50 [8]: > 30000 nM | IC50 [9]: > 30000 nM

SMILES: CC(C)Oc1cccc2c(N3CCN(c4ccccc4F)CC3)c(C#N)cnc12
EC50 [10]: 1250 nM | Activity [1]: 67%

SMILES: N#Cc1cnc2c(OC3CCOC3)cccc2c1N1CCN(c2ccccc2F)CC1 (single isomer, unassigned; (-)) [listing 1 of 2 here]
EC50 [10]: 1100 nM

SMILES: N#Cc1cnc2c(OCC3CCOC3)cccc2c1N1CCN(c2ccccc2F)CC1 (racemic) [listing 1 of 2 here]
EC50 [10]: 1300 nM

SMILES: N#Cc1cnc2c(OC3CCOC3)cccc2c1N1CCN(c2ccccc2F)CC1 (racemic)
EC50 [10]: 1300 nM | EC50 [11]: 1000 nM | Ki [12]: > 10000 nM | CLint scaled at 1 µM [13]: 54 mL/min/kg | CLint scaled at 1 µM [14]: 75.8 mL/min/kg | fraction unbound at 4 h, 5 µM [15]: 0.03 | fraction unbound at 4 h, 5 µM [16]: 0.02 | fraction unbound at 6 h, 5 µM [17]: 0.006 | fraction unbound at 6 h, 5 µM [18]: 0.01 | Kp at 0.25 h [19]: 4.36 | Kp uu at 0.25 h [20]: 0.79

SMILES: N#Cc1cnc2c(OC3CCOC3)cccc2c1N1CCN(c2ccccc2F)CC1 (single isomer, unassigned; (+))
Activity [1]: 85%

SMILES: COc1ccc(F)c2c(N3CCN(c4ccccc4F)CC3)c(C#N)cnc12
EC50 [10]: > 10000 nM | Activity [1]: 35% | IC50 [12]: 4000 nM

SMILES: N#Cc1cnc2c(OC3CCOC3)cccc2c1N1CCN(c2ccccc2F)CC1 (single isomer, unassigned; (-)) [listing 2 of 2 here]
Activity [1]: 70%

SMILES: N#Cc1cnc2c(OCC3CCOC3)cccc2c1N1CCN(c2ccccc2F)CC1 (racemic) [listing 2 of 2 here]
Activity [1]: 88%

SMILES: COc1c(F)ccc2c(N3CCN(c4ccccc4F)CC3)c(C#N)cnc12
EC50 [10]: 1800 nM | Activity [1]: 53% | IC50 [12]: 3000 nM

SMILES: CC1CN(c2cccc3c(N4CCN(c5ccccc5F)CC4)c(C#N)cnc23)CCO1 (configuration not stated)
EC50 [10]: 7100 nM | Activity [1]: 84%

Now from value to compound:

Activity [1]: 89%
SMILES: N#Cc1cnc2c(OCC3CCOC3)cccc2c1N1CCN(c2ccccc2F)CC1 (stereo in doubt; (-)-20f)

EC50 [10]: > 10000 nM | Activity [1]: 90%
SMILES: N#Cc1cnc2c(O)cccc2c1N1CCN(c2ccccc2F)CC1

EC50 [10]: > 10000 nM | Activity [1]: 90%
SMILES: N#Cc1cnc2c(O)cc(F)cc2c1N1CCN(c2ccccc2F)CC1

Activity [1]: 77%
SMILES: N#Cc1cnc2c(OCC3CCOC3)cccc2c1N1CCN(c2ccccc2F)CC1 (single isomer, unassigned; (+))

EC50 [10]: 1300 nM | EC50 [11]: 710 nM | Activity [1]: 72% | Activity [21]: 29.5% | Ki [12]: > 10000 nM | CLint scaled at 1 µM [13]: 58.6 mL/min/kg | CLint scaled at 1 µM [14]: 76.2 mL/min/kg | fraction unbound at 4 h, 5 µM [15]: 0.01 | fraction unbound at 4 h, 5 µM [16]: 0.01 | fraction unbound at 6 h, 5 µM [17]: 0.002 | fraction unbound at 6 h, 5 µM [18]: 0.002 | Kp at 0.25 h [19]: 6.84 | Kp uu at 0.25 h [20]: 1.24
SMILES: N#Cc1cnc2c(N3CCOCC3)cccc2c1N1CCN(c2ccccc2F)CC1

EC50 [10]: > 10000 nM | Activity [1]: 22%
SMILES: N#Cc1cnc2c(N3CCCC3)cccc2c1N1CCN(c2ccccc2F)CC1

EC50 [10]: 1800 nM | Activity [1]: 67%
SMILES: N#Cc1cnc2c(OC3CCC3)cccc2c1N1CCN(c2ccccc2F)CC1
